Measurements reported in US20190126075A1, “FOOD AND DRINK PRODUCT CONTAINING POORLY DIGESTIBLE COMPOUND AND COLONIC-HYDROGEN-GAS PRODUCING AGENT” (Kyodo Milk Industry Co., Ltd., priority 2015, published 2019).
Marks after values point to notes of the source that are not given here.

Legend:
fecal bacteria [1] = assay: H2 production in fecal incubation system, single digestion-resistant components (Example 1); format: cell-based, human; conditions: final concentration 0.5%; for subjects whose fecal samples showed a sample/control ratio of 10 or higher: 10 subjects; for ratio of the H2 production concentration in sample relative to control: 37° C. for 24 hours
Text: Twenty-three different types of digestion-resistant components (cellulose, isomaltooligosaccharide, lactose, fructooligosaccharide, galactooligosaccharide, cellobiose, xylooligosaccharide, xylitol, sorbitol, erythritol, maltitol, mannitol, pectin, sodium alginate, glucomannan, lignin, chitin, chitosan, resistant starch, resistant dextrin, reduced resistant dextrin, kale, or young barley leaf) were each diluted with phosphate buffered saline (PBS) to adjust the concentration to 2.5% (w/v). Among these components, those which were not completely dissolved were used in a suspended state. The control used was a PBS solution not containing any of these components.
Fecal samples were collected from 10 human healthy adult subjects (7 male, 3 female, average aged 35.8), and were used within 5 hours after defecation.
(§1) Twenty milliliters of an anaerobic dilution solution (a solution prepared by dissolving KH2PO4, Na2HPO4, L-cysteine hydrochloride, Tween 80, and 0.1% Resazurin in a vial, jet-injecting N2 and CO2 (80%, 20%) into the vial, and autoclaving the vial sealed with a butyl rubber stopper) was added to 5 g of each of the collected samples, and the mixture was stirred by vortexing and then centrifuged (at 1000 g for 1 min.) to remove solids such as undigested food debris. 160 μL of each of the fecal suspension supernatants harboring fecal bacteria was dispensed into an Eppendorf tube, and 40 μL of each of the prepared solutions of digestion-resistant components in PBS was added to each of the Eppendorf tubes (final concentrations of digestion-resistant components: 0.5%). The Eppendorf tubes containing a mixture of fecal suspension and digestion-resistant component were placed into vial bottles (40 mm×75 mm, 50 mL) while the lids of the tubes and bottles were left open, and a mixed gas of N2 and CO2 (79.8%, 20.2%) was jet-injected to render the Eppendorf tubes and the bottles anaerobic. The vials were sealed with butyl rubber stoppers and incubated in an incubator (at 37° C. for 24 hours). The experiments were done in duplicate per sample, with each experiment being repeated three times.
(§2) Half a milliliter of the gas in each of the vial bottles was collected in a 1.0 mL gastight syringe (produced by Hamilton Company) and analyzed by TRIlyzer (Taiyo Nippon Sanso Corporation). In this process, when concentration exceeded the detection limit, 1 mL of the sample was injected into a 50 mL vial bottle, diluted 50-fold, and subjected to concentration measurement. Before gas collection, the gas in the vial bottles was stirred five times using the syringe.
The ratio of the H2 production concentration in each of the samples relative to that in the control was calculated, and those sample/control ratios of 10 or higher are shaded in the table (Table 1).

fecal bacteria [2] = assay: H2 production in fecal incubation system, single components vs mixture of three (Example 2); format: cell-based, human; conditions: 14 subjects; 0.8% solution of each component in PBS
Procedure: as §1, §2
Each of maltitol, galactooligosaccharide and glucomannan was dissolved in PBS to give a 0.8% solution. Similarly, in order to prepare a mixed solution of the three components, these components were mixed at a concentration of 0.8% each, and dissolved in PBS. The control used was a PBS solution not containing any of these components.
Fecal samples from 14 human healthy adult subjects (11 male, 3 female, average aged 40.9) were used.
Fecal treatment and incubation, and H2 concentration measurement, were performed by the same procedures as in Example 1.

OC[C@@H](O)[C@@H](O[C@H]1O[C@H](CO)[C@@H](O)[C@H](O)[C@H]1O)[C@H](O)[C@@H](O)CO [Maltitol, 4-O-α-D-glucopyranosyl-D-glucitol]
subjects whose fecal samples showed a sample/control ratio of 10 or higher (fecal bacteria [1]): 6 of 10
ratio of the H2 production concentration in sample relative to control (fecal bacteria [1]; Subject No. 1 fecal sample): 12.5*
ratio of the H2 production concentration in sample relative to control (fecal bacteria [1]; Subject No. 2 fecal sample): 7.2
ratio of the H2 production concentration in sample relative to control (fecal bacteria [1]; Subject No. 3 fecal sample): 386.6*
ratio of the H2 production concentration in sample relative to control (fecal bacteria [1]; Subject No. 4 fecal sample): 22.1*
ratio of the H2 production concentration in sample relative to control (fecal bacteria [1]; Subject No. 5 fecal sample): 2.6
ratio of the H2 production concentration in sample relative to control (fecal bacteria [1]; Subject No. 6 fecal sample): 8.4
ratio of the H2 production concentration in sample relative to control (fecal bacteria [1]; Subject No. 7 fecal sample): 315.5*
ratio of the H2 production concentration in sample relative to control (fecal bacteria [1]; Subject No. 8 fecal sample): 0.8
ratio of the H2 production concentration in sample relative to control (fecal bacteria [1]; Subject No. 9 fecal sample): 55.6*
ratio of the H2 production concentration in sample relative to control (fecal bacteria [1]; Subject No. 10 fecal sample): 32.3*
subjects whose fecal samples showed a sample/control H2 production concentration ratio of 2 or higher (fecal bacteria [2]): 9 of 14
subjects whose fecal samples showed a sample/control H2 production concentration ratio of 3 or higher (fecal bacteria [2]): 5 of 14
subjects whose fecal samples showed a sample/control H2 production concentration ratio of 5 or higher (fecal bacteria [2]): 2 of 14

O=C[C@H](O)[C@@H](O)[C@H](O[C@@H]1O[C@H](CO)[C@@H](O)[C@H](O)[C@H]1O)[C@H](O)CO [Cellobiose, cellobiose]
subjects whose fecal samples showed a sample/control ratio of 10 or higher (fecal bacteria [1]): 7 of 10
ratio of the H2 production concentration in sample relative to control (fecal bacteria [1]; Subject No. 1 fecal sample): 25.7*
ratio of the H2 production concentration in sample relative to control (fecal bacteria [1]; Subject No. 2 fecal sample): 37.0*
ratio of the H2 production concentration in sample relative to control (fecal bacteria [1]; Subject No. 3 fecal sample): 67.3*
ratio of the H2 production concentration in sample relative to control (fecal bacteria [1]; Subject No. 4 fecal sample): 76.5*
ratio of the H2 production concentration in sample relative to control (fecal bacteria [1]; Subject No. 5 fecal sample): 8.1
ratio of the H2 production concentration in sample relative to control (fecal bacteria [1]; Subject No. 6 fecal sample): 52.0*
ratio of the H2 production concentration in sample relative to control (fecal bacteria [1]; Subject No. 7 fecal sample): 3.1
ratio of the H2 production concentration in sample relative to control (fecal bacteria [1]; Subject No. 8 fecal sample): 7.5
ratio of the H2 production concentration in sample relative to control (fecal bacteria [1]; Subject No. 9 fecal sample): 46.4*
ratio of the H2 production concentration in sample relative to control (fecal bacteria [1]; Subject No. 10 fecal sample): 18.9*

OC[C@@H](O)[C@@H](O)CO [Erythritol, erythritol]
subjects whose fecal samples showed a sample/control ratio of 10 or higher (fecal bacteria [1]): 2 of 10
ratio of the H2 production concentration in sample relative to control (fecal bacteria [1]; Subject No. 1 fecal sample): 12.7*
ratio of the H2 production concentration in sample relative to control (fecal bacteria [1]; Subject No. 2 fecal sample): 27.6*
ratio of the H2 production concentration in sample relative to control (fecal bacteria [1]; Subject No. 3 fecal sample): 3.8
ratio of the H2 production concentration in sample relative to control (fecal bacteria [1]; Subject No. 4 fecal sample): 1.5
ratio of the H2 production concentration in sample relative to control (fecal bacteria [1]; Subject No. 5 fecal sample): 7.1
ratio of the H2 production concentration in sample relative to control (fecal bacteria [1]; Subject No. 6 fecal sample): 1.8
ratio of the H2 production concentration in sample relative to control (fecal bacteria [1]; Subject No. 7 fecal sample): 4.0
ratio of the H2 production concentration in sample relative to control (fecal bacteria [1]; Subject No. 8 fecal sample): 1.8
ratio of the H2 production concentration in sample relative to control (fecal bacteria [1]; Subject No. 9 fecal sample): 1.0
ratio of the H2 production concentration in sample relative to control (fecal bacteria [1]; Subject No. 10 fecal sample): 2.1

OC[C@@H](O)[C@@H](O)[C@H](O)[C@@H](O)CO [Sorbitol, sorbitol]
subjects whose fecal samples showed a sample/control ratio of 10 or higher (fecal bacteria [1]): 4 of 10
ratio of the H2 production concentration in sample relative to control (fecal bacteria [1]; Subject No. 1 fecal sample): 31.6*
ratio of the H2 production concentration in sample relative to control (fecal bacteria [1]; Subject No. 2 fecal sample): 9.6
ratio of the H2 production concentration in sample relative to control (fecal bacteria [1]; Subject No. 3 fecal sample): 33.0*
ratio of the H2 production concentration in sample relative to control (fecal bacteria [1]; Subject No. 4 fecal sample): 54.8*
ratio of the H2 production concentration in sample relative to control (fecal bacteria [1]; Subject No. 5 fecal sample): 3.4
ratio of the H2 production concentration in sample relative to control (fecal bacteria [1]; Subject No. 6 fecal sample): 4.2
ratio of the H2 production concentration in sample relative to control (fecal bacteria [1]; Subject No. 7 fecal sample): 68.6*
ratio of the H2 production concentration in sample relative to control (fecal bacteria [1]; Subject No. 8 fecal sample): 1.7
ratio of the H2 production concentration in sample relative to control (fecal bacteria [1]; Subject No. 9 fecal sample): 0.1
ratio of the H2 production concentration in sample relative to control (fecal bacteria [1]; Subject No. 10 fecal sample): 4.5

OC[C@@H](O)[C@H](O)[C@@H](O)CO [Xylitol, xylitol]
subjects whose fecal samples showed a sample/control ratio of 10 or higher (fecal bacteria [1]): 6 of 10
ratio of the H2 production concentration in sample relative to control (fecal bacteria [1]; Subject No. 1 fecal sample): 18.4*
ratio of the H2 production concentration in sample relative to control (fecal bacteria [1]; Subject No. 2 fecal sample): 11.1*
ratio of the H2 production concentration in sample relative to control (fecal bacteria [1]; Subject No. 3 fecal sample): 40.2*
ratio of the H2 production concentration in sample relative to control (fecal bacteria [1]; Subject No. 4 fecal sample): 72.4*
ratio of the H2 production concentration in sample relative to control (fecal bacteria [1]; Subject No. 5 fecal sample): 8.8
ratio of the H2 production concentration in sample relative to control (fecal bacteria [1]; Subject No. 6 fecal sample): 3.2
ratio of the H2 production concentration in sample relative to control (fecal bacteria [1]; Subject No. 7 fecal sample): 1.4
ratio of the H2 production concentration in sample relative to control (fecal bacteria [1]; Subject No. 8 fecal sample): 1.9
ratio of the H2 production concentration in sample relative to control (fecal bacteria [1]; Subject No. 9 fecal sample): 12.5*
ratio of the H2 production concentration in sample relative to control (fecal bacteria [1]; Subject No. 10 fecal sample): 60.2*

OC[C@@H](O)[C@@H](O)[C@H](O)[C@H](O)CO [Mannitol, mannitol]
subjects whose fecal samples showed a sample/control ratio of 10 or higher (fecal bacteria [1]): 5 of 10
ratio of the H2 production concentration in sample relative to control (fecal bacteria [1]; Subject No. 1 fecal sample): 2.2
ratio of the H2 production concentration in sample relative to control (fecal bacteria [1]; Subject No. 2 fecal sample): 28.2*
ratio of the H2 production concentration in sample relative to control (fecal bacteria [1]; Subject No. 3 fecal sample): 234.7*
ratio of the H2 production concentration in sample relative to control (fecal bacteria [1]; Subject No. 4 fecal sample): 81.9*
ratio of the H2 production concentration in sample relative to control (fecal bacteria [1]; Subject No. 5 fecal sample): 6.6
ratio of the H2 production concentration in sample relative to control (fecal bacteria [1]; Subject No. 6 fecal sample): 76.2*
ratio of the H2 production concentration in sample relative to control (fecal bacteria [1]; Subject No. 7 fecal sample): 54.3*
ratio of the H2 production concentration in sample relative to control (fecal bacteria [1]; Subject No. 8 fecal sample): 1.7
ratio of the H2 production concentration in sample relative to control (fecal bacteria [1]; Subject No. 9 fecal sample): 0.0
ratio of the H2 production concentration in sample relative to control (fecal bacteria [1]; Subject No. 10 fecal sample): 3.5

4′-galactosyllactose [Galactooligosaccharide]
subjects whose fecal samples showed a sample/control ratio of 10 or higher (fecal bacteria [1]): 5 of 10
ratio of the H2 production concentration in sample relative to control (fecal bacteria [1]; Subject No. 1 fecal sample): 5.3
ratio of the H2 production concentration in sample relative to control (fecal bacteria [1]; Subject No. 2 fecal sample): 18.5*
ratio of the H2 production concentration in sample relative to control (fecal bacteria [1]; Subject No. 3 fecal sample): 35.8*
ratio of the H2 production concentration in sample relative to control (fecal bacteria [1]; Subject No. 4 fecal sample): 16.9*
ratio of the H2 production concentration in sample relative to control (fecal bacteria [1]; Subject No. 5 fecal sample): 15.4*
ratio of the H2 production concentration in sample relative to control (fecal bacteria [1]; Subject No. 6 fecal sample): 22.1*
ratio of the H2 production concentration in sample relative to control (fecal bacteria [1]; Subject No. 7 fecal sample): 0.8
ratio of the H2 production concentration in sample relative to control (fecal bacteria [1]; Subject No. 8 fecal sample): 0.8
ratio of the H2 production concentration in sample relative to control (fecal bacteria [1]; Subject No. 9 fecal sample): 0.1
ratio of the H2 production concentration in sample relative to control (fecal bacteria [1]; Subject No. 10 fecal sample): 5.9
subjects whose fecal samples showed a sample/control H2 production concentration ratio of 2 or higher (fecal bacteria [2]): 8 of 14
subjects whose fecal samples showed a sample/control H2 production concentration ratio of 3 or higher (fecal bacteria [2]): 0 of 14
subjects whose fecal samples showed a sample/control H2 production concentration ratio of 5 or higher (fecal bacteria [2]): not in any

OC[C@H]1O[C@@H](O[C@H]2[C@H](O)[C@@H](O)C(O)O[C@@H]2CO)[C@H](O)[C@@H](O)[C@H]1O (stereo partly shown) [Lactose, lactose]
subjects whose fecal samples showed a sample/control ratio of 10 or higher (fecal bacteria [1]): 4 of 10
ratio of the H2 production concentration in sample relative to control (fecal bacteria [1]; Subject No. 1 fecal sample): 4.9
ratio of the H2 production concentration in sample relative to control (fecal bacteria [1]; Subject No. 2 fecal sample): 9.5
ratio of the H2 production concentration in sample relative to control (fecal bacteria [1]; Subject No. 3 fecal sample): 36.6*
ratio of the H2 production concentration in sample relative to control (fecal bacteria [1]; Subject No. 4 fecal sample): 28.7*
ratio of the H2 production concentration in sample relative to control (fecal bacteria [1]; Subject No. 5 fecal sample): 22.4*
ratio of the H2 production concentration in sample relative to control (fecal bacteria [1]; Subject No. 6 fecal sample): 22.1*
ratio of the H2 production concentration in sample relative to control (fecal bacteria [1]; Subject No. 7 fecal sample): 0.5
ratio of the H2 production concentration in sample relative to control (fecal bacteria [1]; Subject No. 8 fecal sample): 0.7
ratio of the H2 production concentration in sample relative to control (fecal bacteria [1]; Subject No. 9 fecal sample): 0.1
ratio of the H2 production concentration in sample relative to control (fecal bacteria [1]; Subject No. 10 fecal sample): 7.1
